Measured values from patent US20080009418A1, “Selective Inhibitors” (Alchemia LTD., priority 2004, published 2008).

How the values were obtained:
[1] = target: T1, Human neurokinin (NK1) (Homo sapiens, UniProt P25103); assay: Radioligand binding, human neurokinin NK1 membranes, filtration, [125I]-Substance P; settings: compound at 10 μM; for A8 radioligand binding inhibition: human neurokinin NK1 membranes
T1 construct: purchased Perkin Elmer Biosignal
Procedure, shortened: (§1)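 Percent inhibition of radioligand binding measured on recombinant human membranes: NK1 with [125I]-Substance P, KOP with [3H]-Diprenorphine. Incubation 1 h at room temperature, then harvest onto 0.3% PEI-soaked filters, cold Tris-HCl pH 7.4 washes and scintillation counting; non-specific binding from reference ligand wells.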

[2] = target: T2, Human μ-opioid (MOP) (Homo sapiens, UniProt P35372); assay: Radioligand binding, human μ-opioid (MOP) membranes, FlashPlate, [3H]-Naloxone; settings: compound at 10 μM; for A7 radioligand binding inhibition: human μ-opioid (MOP) membranes
T2 construct: purchased Perkin Elmer Biosignal
Procedure, shortened: (§2)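 Cloned human receptor membranes were coated onto FlashPlate wells and incubated with radioligand and compound (added from a 0.5 mM DMSO daughter plate) for 1 hour at room temperature in the dark. Scintillation counting gave percent inhibition, with DMSO defining total and reference ligand defining non-specific binding.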

[3] = target: T3, Human κ-Opioid (KOP) (Homo sapiens, UniProt P41145); assay: Radioligand binding, human κ-opioid (KOP) membranes, filtration, [3H]-Diprenorphine; settings: compound at 10 μM; for A2 radioligand binding inhibition: human κ-opioid (KOP) membranes
T3 construct: purchased Perkin Elmer Biosignal
Procedure, shortened: as §1

[4] = target: T4, Human melanocortin (MC5) (Homo sapiens, UniProt P33032); assay: Radioligand binding, human melanocortin MC5 membranes, FlashPlate, [125I]-NDP-αMSH; settings: compound at 10 μM; for A5 radioligand binding inhibition: human melanocortin MC5 membranes
T4 construct: purchased Perkin Elmer Biosignal
Procedure, shortened: as §2

[5] = target: T5, Mouse urotensin (mUR2) (Mus musculus, UniProt Q8VIH9); assay: Radioligand binding, mouse urotensin mUR2 membranes, FlashPlate, [125I]-Urotensin II; settings: compound at 10 μM; for A11 radioligand binding inhibition: mouse urotensin mUR2 membranes
T5 construct: purchased Perkin Elmer Biosignal
T5 sequence (Q8VIH9 1-385): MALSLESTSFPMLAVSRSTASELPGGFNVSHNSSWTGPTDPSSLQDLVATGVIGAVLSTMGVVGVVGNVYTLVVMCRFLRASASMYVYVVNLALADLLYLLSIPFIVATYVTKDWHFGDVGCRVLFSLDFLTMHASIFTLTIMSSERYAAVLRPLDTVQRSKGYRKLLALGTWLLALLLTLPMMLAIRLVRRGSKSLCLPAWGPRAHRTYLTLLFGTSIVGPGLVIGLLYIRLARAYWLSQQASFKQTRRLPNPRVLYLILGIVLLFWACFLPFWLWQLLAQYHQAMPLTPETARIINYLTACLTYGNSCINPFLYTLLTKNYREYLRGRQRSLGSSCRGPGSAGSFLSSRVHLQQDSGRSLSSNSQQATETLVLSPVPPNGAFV
Procedure, shortened: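 Cloned mouse urotensin (mUR2) receptor membranes from Perkin Elmer Biosignal were immobilized in FlashPlate microplates using a proprietary coating. Each well got 19.5 μl buffer, then 0.5 μl of DMSO, reference ligand, or compound. Adding 5 μl of [125I]-Urotensin II, diluted to 5× final concentration in binding buffer, started binding. Plates were sealed with TopSeal-A and incubated 1 hour at room temperature in the dark. Wells were counted for 30 seconds each on a TopCount after a 60-second delay, and percentage inhibition was calculated.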

[6] = target: T6, Human neuropeptide Y (NPY-Y1) (Homo sapiens, UniProt P25929); assay: Radioligand binding, human neuropeptide Y NPY-Y1 membranes, FlashPlate, [125I]-PYY; settings: compound at 10 μM
T6 construct: purchased Perkin Elmer Biosignal
T6 sequence (P25929 1-384): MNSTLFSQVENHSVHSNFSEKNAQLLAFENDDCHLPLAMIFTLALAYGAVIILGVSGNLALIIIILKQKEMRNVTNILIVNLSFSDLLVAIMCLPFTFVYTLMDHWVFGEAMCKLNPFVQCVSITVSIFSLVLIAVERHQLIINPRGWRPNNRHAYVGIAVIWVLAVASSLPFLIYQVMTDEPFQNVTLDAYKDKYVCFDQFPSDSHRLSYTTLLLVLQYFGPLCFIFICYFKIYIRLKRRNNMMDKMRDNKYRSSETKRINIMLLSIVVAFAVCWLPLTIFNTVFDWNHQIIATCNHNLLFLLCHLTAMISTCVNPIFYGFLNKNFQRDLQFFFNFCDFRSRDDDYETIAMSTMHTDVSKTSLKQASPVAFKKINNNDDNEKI
Procedure, shortened: as §2

[7] = target: T7, Human Melanocortin (MC3) (Homo sapiens, UniProt P41968); assay: Radioligand binding, human melanocortin MC3 membranes, FlashPlate, [125I]-NDP-αMSH; settings: compound at 10 μM; for A3 radioligand binding inhibition: human melanocortin MC3 membranes
T7 construct: purchased Perkin Elmer Biosignal
Procedure, shortened: as §2

[8] = target: T8, Human opioid (ORL1) (Homo sapiens, UniProt P41146); assay: Radioligand binding, human opioid ORL1 membranes, FlashPlate, [125I]-Nociceptin; settings: compound at 10 μM
T8 construct: purchased Perkin Elmer Biosignal
Procedure, shortened: as §2

[9] = target: T9, Human δ-opioid (DOP) (Homo sapiens, UniProt P41143); assay: Radioligand binding, human δ-opioid (DOP) membranes, FlashPlate, [3H]-Bremazocine; settings: compound at 10 μM; for A1 radioligand binding inhibition: human δ-opioid (DOP) membranes
T9 construct: purchased Perkin Elmer Biosignal
Procedure, shortened: as §2

[10] = target: T10, Human Melanocortin (MC4) (Homo sapiens, UniProt P32245); assay: Radioligand binding, human melanocortin MC4 membranes, FlashPlate, [125I]-NDP-αMSH; settings: compound at 10 μM; for A4 radioligand binding inhibition: human melanocortin MC4 membranes
T10 construct: purchased Perkin Elmer Biosignal
Procedure, shortened: as §2

[11] = target: T11, Human melanin-concentrating hormone (MCH1) (Homo sapiens, UniProt Q99705); assay: Radioligand binding, human melanin-concentrating hormone MCH1 membranes, FlashPlate, [125I]-S36057; settings: compound at 10 μM; for A6 radioligand binding inhibition: human MCH1 membranes
T11 construct: purchased Perkin Elmer Biosignal
Procedure, shortened: as §2

T9 sequence (P41143 whole entry): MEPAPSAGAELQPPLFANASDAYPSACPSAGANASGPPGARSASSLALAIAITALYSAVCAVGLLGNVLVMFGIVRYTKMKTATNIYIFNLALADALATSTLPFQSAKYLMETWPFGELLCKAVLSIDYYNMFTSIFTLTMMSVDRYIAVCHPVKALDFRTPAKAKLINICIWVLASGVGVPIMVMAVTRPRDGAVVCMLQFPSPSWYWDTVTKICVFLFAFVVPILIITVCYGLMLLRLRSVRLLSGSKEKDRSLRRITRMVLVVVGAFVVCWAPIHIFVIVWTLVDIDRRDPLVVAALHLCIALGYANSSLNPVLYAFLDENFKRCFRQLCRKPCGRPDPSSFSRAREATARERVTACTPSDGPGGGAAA
T1 sequence (P25103 whole entry): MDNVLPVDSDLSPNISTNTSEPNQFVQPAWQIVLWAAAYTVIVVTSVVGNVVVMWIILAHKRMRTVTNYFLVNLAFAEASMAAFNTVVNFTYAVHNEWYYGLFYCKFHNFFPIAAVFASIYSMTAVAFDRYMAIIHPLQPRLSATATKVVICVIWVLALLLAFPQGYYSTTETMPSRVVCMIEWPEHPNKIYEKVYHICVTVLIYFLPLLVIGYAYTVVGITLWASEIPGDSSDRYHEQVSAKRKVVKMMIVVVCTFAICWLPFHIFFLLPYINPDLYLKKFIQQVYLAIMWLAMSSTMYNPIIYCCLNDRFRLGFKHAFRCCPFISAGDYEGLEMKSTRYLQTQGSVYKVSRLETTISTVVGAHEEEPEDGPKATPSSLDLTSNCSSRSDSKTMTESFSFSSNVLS
T7 sequence (P41968 whole entry): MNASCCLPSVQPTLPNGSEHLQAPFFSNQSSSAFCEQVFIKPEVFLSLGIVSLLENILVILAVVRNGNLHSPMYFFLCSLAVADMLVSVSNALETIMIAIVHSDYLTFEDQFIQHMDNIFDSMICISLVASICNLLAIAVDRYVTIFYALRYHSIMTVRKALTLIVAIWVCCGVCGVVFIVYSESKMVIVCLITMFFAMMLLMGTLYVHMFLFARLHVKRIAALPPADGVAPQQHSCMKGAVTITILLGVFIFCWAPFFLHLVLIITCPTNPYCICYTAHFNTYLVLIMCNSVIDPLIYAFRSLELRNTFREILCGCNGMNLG
T2 sequence (P35372 whole entry): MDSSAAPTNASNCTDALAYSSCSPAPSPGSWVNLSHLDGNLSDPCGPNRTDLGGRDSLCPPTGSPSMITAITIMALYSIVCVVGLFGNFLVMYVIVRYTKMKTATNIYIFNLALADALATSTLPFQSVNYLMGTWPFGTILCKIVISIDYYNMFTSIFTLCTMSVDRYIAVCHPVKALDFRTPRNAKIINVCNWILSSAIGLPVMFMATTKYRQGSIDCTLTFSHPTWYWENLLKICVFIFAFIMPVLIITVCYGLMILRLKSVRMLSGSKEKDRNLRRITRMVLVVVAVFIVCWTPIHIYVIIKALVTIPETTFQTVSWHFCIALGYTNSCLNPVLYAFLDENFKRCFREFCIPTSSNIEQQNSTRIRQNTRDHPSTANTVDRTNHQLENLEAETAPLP
T4 sequence (P33032 whole entry): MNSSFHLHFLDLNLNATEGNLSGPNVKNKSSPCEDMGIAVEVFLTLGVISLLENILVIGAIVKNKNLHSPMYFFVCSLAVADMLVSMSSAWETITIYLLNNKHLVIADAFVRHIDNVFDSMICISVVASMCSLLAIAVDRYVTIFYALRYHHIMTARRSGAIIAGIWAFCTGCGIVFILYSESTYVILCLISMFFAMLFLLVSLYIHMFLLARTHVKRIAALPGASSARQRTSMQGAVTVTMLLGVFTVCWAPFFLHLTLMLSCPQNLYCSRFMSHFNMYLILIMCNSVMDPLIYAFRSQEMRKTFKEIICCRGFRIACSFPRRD
T8 sequence (P41146 whole entry): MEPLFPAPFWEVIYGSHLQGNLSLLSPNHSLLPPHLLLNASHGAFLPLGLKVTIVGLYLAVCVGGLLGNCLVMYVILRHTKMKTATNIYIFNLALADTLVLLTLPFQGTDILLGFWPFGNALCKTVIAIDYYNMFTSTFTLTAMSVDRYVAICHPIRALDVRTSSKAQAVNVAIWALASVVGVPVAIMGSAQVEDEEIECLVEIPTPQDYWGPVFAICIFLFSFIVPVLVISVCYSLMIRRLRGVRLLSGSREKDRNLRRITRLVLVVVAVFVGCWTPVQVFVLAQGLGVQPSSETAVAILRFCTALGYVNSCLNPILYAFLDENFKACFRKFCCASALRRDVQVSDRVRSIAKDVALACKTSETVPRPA
T10 sequence (P32245 whole entry): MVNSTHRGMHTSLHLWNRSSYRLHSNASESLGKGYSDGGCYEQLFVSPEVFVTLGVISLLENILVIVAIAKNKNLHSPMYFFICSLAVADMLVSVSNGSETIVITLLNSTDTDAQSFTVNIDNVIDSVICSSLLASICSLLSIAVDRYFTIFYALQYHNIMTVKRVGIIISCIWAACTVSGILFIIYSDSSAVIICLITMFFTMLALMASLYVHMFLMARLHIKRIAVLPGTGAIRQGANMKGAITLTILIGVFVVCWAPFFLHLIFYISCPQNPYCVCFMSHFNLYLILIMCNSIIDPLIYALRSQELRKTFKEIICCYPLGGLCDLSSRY
T3 sequence (P41145 whole entry): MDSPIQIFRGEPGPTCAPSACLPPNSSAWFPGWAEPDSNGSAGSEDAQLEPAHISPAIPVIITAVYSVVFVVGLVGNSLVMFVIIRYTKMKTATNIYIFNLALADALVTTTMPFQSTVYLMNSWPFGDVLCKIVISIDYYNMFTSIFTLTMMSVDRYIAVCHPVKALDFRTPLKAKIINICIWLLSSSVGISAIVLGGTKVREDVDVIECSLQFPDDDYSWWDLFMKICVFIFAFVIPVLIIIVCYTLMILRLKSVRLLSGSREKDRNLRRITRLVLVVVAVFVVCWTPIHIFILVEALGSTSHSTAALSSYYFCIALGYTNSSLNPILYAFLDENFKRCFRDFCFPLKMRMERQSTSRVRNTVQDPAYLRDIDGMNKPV
T11 sequence (Q99705 whole entry): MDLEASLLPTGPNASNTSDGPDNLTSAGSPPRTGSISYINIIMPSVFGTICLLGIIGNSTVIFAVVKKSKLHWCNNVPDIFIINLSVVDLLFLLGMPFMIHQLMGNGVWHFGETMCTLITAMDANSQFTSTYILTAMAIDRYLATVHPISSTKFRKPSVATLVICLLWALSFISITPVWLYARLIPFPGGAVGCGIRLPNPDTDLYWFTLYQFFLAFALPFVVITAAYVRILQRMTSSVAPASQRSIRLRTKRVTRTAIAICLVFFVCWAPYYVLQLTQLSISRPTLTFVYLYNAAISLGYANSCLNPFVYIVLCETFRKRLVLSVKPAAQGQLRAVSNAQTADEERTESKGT

CO[C@H]1[C@H](O)[C@@H](COCc2ccccc2)OC(OCc2ccc(Cl)cc2)[C@@H]1NC(=O)CCCN (stereo partly shown) [compound 103]
A8 radioligand binding, percentage inhibition ([1]; [125I]-Substance P): + (“+” indicates greater than 50% inhibition at 10 μM) | A7 radioligand binding, percentage inhibition ([2]; [3H]-Naloxone): − (“−” indicates less than 50% inhibition at 10 μM) | A2 radioligand binding, percentage inhibition ([3]; [3H]-Diprenorphine): − (“−” indicates less than 50% inhibition at 10 μM) | A5 radioligand binding, percentage inhibition ([4]; [125I]-NDP-αMSH): − (“−” indicates less than 50% inhibition at 10 μM) | A11 radioligand binding, percentage inhibition ([5]; [125I]-Urotensin II): − (“−” indicates less than 50% inhibition at 10 μM) | A9 radioligand binding, percentage inhibition ([6]; [125I]-PYY): − (“−” indicates less than 50% inhibition at 10 μM) | A3 radioligand binding, percentage inhibition ([7]; [125I]-NDP-αMSH): − (“−” indicates less than 50% inhibition at 10 μM) | A10 radioligand binding, percentage inhibition ([8]; [125I]-Nociceptin): − (“−” indicates less than 50% inhibition at 10 μM) | A1 radioligand binding, percentage inhibition ([9]; [3H]-Bremazocine): − (“−” indicates less than 50% inhibition at 10 μM) | A4 radioligand binding, percentage inhibition ([10]; [125I]-NDP-αMSH): − (“−” indicates less than 50% inhibition at 10 μM) | A6 radioligand binding, percentage inhibition ([11]; [125I]-S36057): − (“−” indicates less than 50% inhibition at 10 μM)

NCCCC(=O)NC1C(OCc2ccc(Cl)cc2)OC(COCc2ccccc2)C(O)C1OCc1ccc(Cl)cc1 (single isomer, unassigned) [compound 491]
A8: inhibition of radioligand binding, human neurokinin (NK1) ([1]; [125I]-Substance P): + (“+” indicates greater than 50% inhibition at 10 μM) | A7: inhibition of radioligand binding, human μ-opioid (MOP) ([2]; [3H]-Naloxone): − (“−” indicates less than 50% inhibition at 10 μM) | A2: inhibition of radioligand binding, human κ-opioid (KOP) ([3]; [3H]-Diprenorphine): − (“−” indicates less than 50% inhibition at 10 μM) | A5: inhibition of radioligand binding, human melanocortin (MC5) ([4]; [125I]-NDP-αMSH, 10 µM): − (“−” indicates less than 50% inhibition at 10 μM) | A11: inhibition of radioligand binding, mouse urotensin (mUR2) ([5]; [125I]-Urotensin II): − (“−” indicates less than 50% inhibition at 10 μM) | A9: inhibition of radioligand binding, human neuropeptide Y (NPY-Y1) ([6]; [125I]-PYY): − (“−” indicates less than 50% inhibition at 10 μM) | A3: inhibition of radioligand binding, human melanocortin (MC3) ([7]; [125I]-NDP-αMSH): − (“−” indicates less than 50% inhibition at 10 μM) | A10: inhibition of radioligand binding, human opioid (ORL1) ([8]; [125I]-Nociceptin): + (“+” indicates greater than 50% inhibition at 10 μM) | A1: inhibition of radioligand binding, human δ-opioid (DOP) ([9]; [3H]-Bremazocine): − (“−” indicates less than 50% inhibition at 10 μM) | A4: inhibition of radioligand binding, human melanocortin (MC4) ([10]; [125I]-NDP-αMSH, 10 µM): − (“−” indicates less than 50% inhibition at 10 μM) | A6: inhibition of radioligand binding, human melanin-concentrating hormone (MCH1) ([11]; [125I]-S36057, 10 µM): − (“−” indicates less than 50% inhibition at 10 μM)

CO[C@H]1[C@H](O)[C@@H](COCc2ccc3ccccc3c2)OC(OCc2ccc(-c3ccccc3)cc2)[C@@H]1NC(=O)CCCNC(=N)N (stereo partly shown) [compound 57]
A8 radioligand binding inhibition [1]: + (“+” indicates greater than 50% inhibition at 10 μM) | A7 radioligand binding inhibition [2]: + (“+” indicates greater than 50% inhibition at 10 μM) | A2 radioligand binding inhibition [3]: + (“+” indicates greater than 50% inhibition at 10 μM) | A5 radioligand binding inhibition [4]: + (“+” indicates greater than 50% inhibition at 10 μM) | A11 radioligand binding inhibition [5]: − (“−” indicates less than 50% inhibition at 10 μM) | A9 radioligand binding inhibition ([6]; human NPY-Y1 membranes): − (“−” indicates less than 50% inhibition at 10 μM) | A3 radioligand binding inhibition [7]: + (“+” indicates greater than 50% inhibition at 10 μM) | A10 radioligand binding inhibition ([8]; human ORL1 membranes): + (“+” indicates greater than 50% inhibition at 10 μM) | A1 radioligand binding inhibition [9]: − (“−” indicates less than 50% inhibition at 10 μM) | A4 radioligand binding inhibition [10]: + (“+” indicates greater than 50% inhibition at 10 μM) | A6 radioligand binding inhibition [11]: − (“−” indicates less than 50% inhibition at 10 μM)

N=C(N)NCCC(=O)NC1C(OCc2ccc(Cl)cc2)OC(COCc2ccccc2)C(O)C1OCc1ccc2ccccc2c1 (stereo not shown) [compound 430]
A8: inhibition of radioligand binding ([1]; [125I]-Substance P, human NK1 membranes): + (“+” indicates greater than 50% inhibition at 10 μM) | A7: inhibition of radioligand binding ([2]; [3H]-Naloxone, human MOP membranes): − (“−” indicates less than 50% inhibition at 10 μM) | A2: inhibition of radioligand binding ([3]; [3H]-Diprenorphine, human KOP membranes): − (“−” indicates less than 50% inhibition at 10 μM) | A5: inhibition of radioligand binding ([4]; [125I]-NDP-αMSH, human MC5 membranes): + (“+” indicates greater than 50% inhibition at 10 μM) | A11: inhibition of radioligand binding ([5]; [125I]-Urotensin II, mouse mUR2 membranes): − (“−” indicates less than 50% inhibition at 10 μM) | A9: inhibition of radioligand binding ([6]; [125I]-PYY, human NPY-Y1 membranes): − (“−” indicates less than 50% inhibition at 10 μM) | A3: inhibition of radioligand binding ([7]; [125I]-NDP-αMSH, human MC3 membranes): + (“+” indicates greater than 50% inhibition at 10 μM) | A10: inhibition of radioligand binding ([8]; [125I]-Nociceptin, human ORL1 membranes): + (“+” indicates greater than 50% inhibition at 10 μM) | A1: inhibition of radioligand binding ([9]; [3H]-Bremazocine, human DOP membranes): − (“−” indicates less than 50% inhibition at 10 μM) | A4: inhibition of radioligand binding ([10]; [125I]-NDP-αMSH, human MC4 membranes): + (“+” indicates greater than 50% inhibition at 10 μM) | A6: inhibition of radioligand binding ([11]; [125I]-S36057, human MCH1 membranes): + (“+” indicates greater than 50% inhibition at 10 μM)

COC[C@H]1OC(OCc2ccc(-c3ccccc3)cc2)[C@H](NC(=O)CCNC(=N)N)[C@@H](OCc2ccc3ccccc3c2)[C@@H]1O (stereo partly shown) [compound 4]
A8 radioligand binding inhibition [1]: + (“+” indicates greater than 50% inhibition at 10 μM) | A7 radioligand binding inhibition [2]: − (“−” indicates less than 50% inhibition at 10 μM) | A2 radioligand binding inhibition [3]: − (“−” indicates less than 50% inhibition at 10 μM) | A5 radioligand binding inhibition [4]: + (“+” indicates greater than 50% inhibition at 10 μM) | A11 radioligand binding inhibition [5]: − (“−” indicates less than 50% inhibition at 10 μM) | A9 radioligand binding inhibition ([6]; human NPY-Y1 membranes): − (“−” indicates less than 50% inhibition at 10 μM) | A3 radioligand binding inhibition [7]: − (“−” indicates less than 50% inhibition at 10 μM) | A10 radioligand binding inhibition ([8]; human ORL1 membranes): − (“−” indicates less than 50% inhibition at 10 μM) | A1 radioligand binding inhibition [9]: − (“−” indicates less than 50% inhibition at 10 μM) | A4 radioligand binding inhibition [10]: − (“−” indicates less than 50% inhibition at 10 μM) | A6 radioligand binding inhibition [11]: + (“+” indicates greater than 50% inhibition at 10 μM)
